Measured values as given in patent publication US10442807B2, “Aryl substituted bicyclic compounds as herbicides” (FMC Corporation, priority 2015, dated 2019).

Experiments:
Assay type in all cases: in vivo
[1] = test system: foxtail, giant (giant foxtail, Setaria faberii); assay: Test A preemergence, directed soil spray, visual injury rating; conditions: approx. 10 d, 0 = no effect, 100 = complete control
Method in brief: (§1)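 In a loam soil and sand blend, either planted seeds got a preemergence directed soil spray or plants at the one- to two-leaf stage (2 to 10 cm tall) were sprayed, using test chemicals in a non-phytotoxic solvent mixture with surfactant. After about 10 d in a greenhouse, injury was visually rated against untreated controls on a 0-100 scale.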

[2] = test system: barnyardgrass (Echinochloa crus-galli); assay: as above; conditions: approx. 10 d, 0 = no effect, 100 = complete control
Method in brief: as §1

[3] = test system: pigweed (Amaranthus retroflexus); assay: as above; conditions: approx. 10 d, 0 = no effect, 100 = complete control
Method in brief: as §1

[4] = test system: ragweed (common ragweed, Ambrosia elation); assay: as above; conditions: approx. 10 d, 0 = no effect, 100 = complete control
Method in brief: as §1

[5] = test system: ryegrass, Italian (Italian ryegrass, Lolium multiflorum); assay: as above; conditions: approx. 10 d, 0 = no effect, 100 = complete control
Method in brief: as §1

kochia (Kochia scoparia) [6] = assay: as above; conditions: approx. 10 d, 0 = no effect, 100 = complete control
Method in brief: as §1

[7] = test system: sedge, umbrella (small-flower umbrella sedge, Cyperus difformis); assay: Test B flooded paddy test, visual plant response rating; conditions: 250 g ai/ha; applied to paddy water at 2-leaf stage; rated after 13 to 15 days; scale 0 to 100, 0 is no effect, 100 is complete control
Method in brief: (§2)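 Visual injury score 0 to 100 against controls (0 = no effect, 100 = complete control), taken 13–15 days after treatment. Test compound went into the paddy water of pots flooded 3 cm over the soil surface, water kept at that depth in greenhouse.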

[8] = test system: barnyardgrass (Echinochloa crus-galli); assay: as above; conditions: 250 g ai/ha; applied to paddy water at 2-leaf stage; rated after 13 to 15 days; scale 0 to 100, 0 is no effect, 100 is complete control
Method in brief: as §2

rice (Oryza sativa) = assay: as above; conditions: 250 g ai/ha; applied to paddy water at 2-leaf stage; rated after 13 to 15 days; scale 0 to 100, 0 is no effect, 100 is complete control
Method in brief: as §2

[9] = test system: ducksalad (Heteranthera limosa); assay: as above; conditions: 250 g ai/ha; applied to paddy water at 2-leaf stage; rated after 13 to 15 days; scale 0 to 100, 0 is no effect, 100 is complete control
Method in brief: as §2

[10] = test system: galium (catchweed bedstraw, Galium aparine); assay: Test A postemergence application, visual injury rating; conditions: approx. 10 d, 0 = no effect, 100 = complete control
Method in brief: as §1

corn (Zea mays) = assay: as above; conditions: approx. 10 d, 0 = no effect, 100 = complete control
Method in brief: as §1

[11] = test system: foxtail, giant (giant foxtail, Setaria faberii); assay: as above; conditions: approx. 10 d, 0 = no effect, 100 = complete control
Method in brief: as §1

[12] = test system: barnyardgrass (Echinochloa crus-galli); assay: as above; conditions: approx. 10 d, 0 = no effect, 100 = complete control
Method in brief: as §1

[13] = test system: pigweed (Amaranthus retroflexus); assay: as above; conditions: approx. 10 d, 0 = no effect, 100 = complete control
Method in brief: as §1

[14] = test system: ragweed (common ragweed, Ambrosia elation); assay: as above; conditions: approx. 10 d, 0 = no effect, 100 = complete control
Method in brief: as §1

[15] = test system: blackgrass (Alopecurus myosuroides); assay: as above; conditions: approx. 10 d, 0 = no effect, 100 = complete control
Method in brief: as §1

[16] = test system: ryegrass, Italian (Italian ryegrass, Lolium multiflorum); assay: as above; conditions: approx. 10 d, 0 = no effect, 100 = complete control
Method in brief: as §1

kochia (Kochia scoparia) [17] = assay: as above; conditions: approx. 10 d, 0 = no effect, 100 = complete control
Method in brief: as §1

[18] = test system: wheat (Triticum aestivum); assay: as above; conditions: approx. 10 d, 0 = no effect, 100 = complete control
Method in brief: as §1

SMILES	Foxtail, Giant plant response rating (0 to 100 scale) ([1]; 125 g ai/ha)	Foxtail, Giant plant response rating (0 to 100 scale) ([1]; 500 g ai/ha)	Barnyardgrass plant response rating (0 to 100 scale) ([2]; 125 g ai/ha)	Barnyardgrass plant response rating (0 to 100 scale) ([2]; 500 g ai/ha)	Pigweed plant response rating (0 to 100 scale) ([3]; 125 g ai/ha)	Pigweed plant response rating (0 to 100 scale) ([3]; 500 g ai/ha)	Ragweed plant response rating (0 to 100 scale) ([4]; 125 g ai/ha)	Ragweed plant response rating (0 to 100 scale) ([4]; 500 g ai/ha)	Ryegrass, Italian plant response rating (0 to 100 scale) ([5]; 125 g ai/ha)	Ryegrass, Italian plant response rating (0 to 100 scale) ([5]; 500 g ai/ha)	Kochia plant response rating (0 to 100 scale) (kochia (Kochia scoparia) [6]; 125 g ai/ha)	Kochia plant response rating (0 to 100 scale) (kochia (Kochia scoparia) [6]; 500 g ai/ha)	Plant response rating, Flood, Sedge, Umbrella [7]	Plant response rating, Flood, Barnyardgrass [8]	Plant response rating, Flood, Rice (rice (Oryza sativa))	Plant response rating, Flood, Ducksalad [9]	Galium plant response rating (0 to 100 scale) ([10]; 125 g ai/ha)	Galium plant response rating (0 to 100 scale) ([10]; 500 g ai/ha)	Corn plant response rating (0 to 100 scale) (corn (Zea mays); 125 g ai/ha)	Corn plant response rating (0 to 100 scale) (corn (Zea mays); 500 g ai/ha)	other results
Cc1ccc(C2Cn3cnnc3C2C(=O)Nc2ccccc2F)cc1 (stereo not drawn) [Compound 13]	70	90	60	70	0	0	0	80	0	0	70	70	0	40	20	45	40	40	0	20	Foxtail, Giant plant response rating (0 to 100 scale) ([11]; 125 g ai/ha): 60; Foxtail, Giant plant response rating (0 to 100 scale) ([11]; 500 g ai/ha): 80; Barnyardgrass plant response rating (0 to 100 scale) ([12]; 125 g ai/ha): 50; Barnyardgrass plant response rating (0 to 100 scale) ([12]; 500 g ai/ha): 90; Pigweed plant response rating (0 to 100 scale) ([13]; 125 g ai/ha): 0; Pigweed plant response rating (0 to 100 scale) ([13]; 500 g ai/ha): 0; Ragweed plant response rating (0 to 100 scale) ([14]; 125 g ai/ha): 0; Ragweed plant response rating (0 to 100 scale) ([14]; 500 g ai/ha): 30; Blackgrass plant response rating (0 to 100 scale) ([15]; 125 g ai/ha): 20; Blackgrass plant response rating (0 to 100 scale) ([15]; 500 g ai/ha): 40; Ryegrass, Italian plant response rating (0 to 100 scale) ([16]; 125 g ai/ha): 0; Ryegrass, Italian plant response rating (0 to 100 scale) ([16]; 500 g ai/ha): 0; Kochia plant response rating (0 to 100 scale) (kochia (Kochia scoparia) [17]; 125 g ai/ha): 0; Kochia plant response rating (0 to 100 scale) (kochia (Kochia scoparia) [17]; 500 g ai/ha): 30; Wheat plant response rating (0 to 100 scale) ([18]; 125 g ai/ha): 0; Wheat plant response rating (0 to 100 scale) ([18]; 500 g ai/ha): 0
CSc1ccccc1NC(=O)C1c2nnc(C)n2CC1c1ccc(C)c(C)c1 (stereo not drawn) [Compound 14]	0	60	0	30	0	0	0	0	0	0	0	0	0	20	0	60	0	0	0	0	Foxtail, Giant plant response rating (0 to 100 scale) ([11]; 125 g ai/ha): 0; Foxtail, Giant plant response rating (0 to 100 scale) ([11]; 500 g ai/ha): 20; Barnyardgrass plant response rating (0 to 100 scale) ([12]; 125 g ai/ha): 0; Barnyardgrass plant response rating (0 to 100 scale) ([12]; 500 g ai/ha): 20; Pigweed plant response rating (0 to 100 scale) ([13]; 125 g ai/ha): 0; Pigweed plant response rating (0 to 100 scale) ([13]; 500 g ai/ha): 0; Ragweed plant response rating (0 to 100 scale) ([14]; 125 g ai/ha): 0; Ragweed plant response rating (0 to 100 scale) ([14]; 500 g ai/ha): 0; Blackgrass plant response rating (0 to 100 scale) ([15]; 125 g ai/ha): 0; Blackgrass plant response rating (0 to 100 scale) ([15]; 500 g ai/ha): 20; Ryegrass, Italian plant response rating (0 to 100 scale) ([16]; 125 g ai/ha): 0; Ryegrass, Italian plant response rating (0 to 100 scale) ([16]; 500 g ai/ha): 0; Kochia plant response rating (0 to 100 scale) (kochia (Kochia scoparia) [17]; 125 g ai/ha): 0; Kochia plant response rating (0 to 100 scale) (kochia (Kochia scoparia) [17]; 500 g ai/ha): 0; Wheat plant response rating (0 to 100 scale) ([18]; 125 g ai/ha): 0; Wheat plant response rating (0 to 100 scale) ([18]; 500 g ai/ha): 0
